One test addresses T1, hEP2 (Homo sapiens, UniProt P43116).
T1 construct: expressed in transfected cells; host or cells: HEK293
The experiment in a line: hEP2 cAMP assay. Type of test: cell-based. To be noted: HEK293 cells overexpressing hEP2; PGE2 agonist 400 pM; graded per Table 21; read-out: IC50 (nM) EP2 cAMP. A digest of the protocol:
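HEK293 cells overexpressing hEP2, serum-starved 4 h, then 1,000 cells/well treated with compound (10 μM–0.001 nM) plus 400 pM PGE2 (about EC50-80) in HBSS buffer with 0.5 mM IBMX for 12 min at room temperature. cAMP measured by TR-FRET (665/615 nm) as % of DMSO control; IC50 from 4-parameter fit, median of repeats.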

A further test addresses T2, hEP4 (Homo sapiens, UniProt P35408).
T2 construct: expressed in transfected cells; host or cells: HEK293
The experiment in a line: hEP4 cAMP assay. Type of test: cell-based. The conditions noted are these: HEK293 cells overexpressing hEP4; PGE2 agonist 20 nM; graded per Table 21; read-out: IC50 (nM) EP4 cAMP. In outline: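 HEK293 cells overexpressing hEP4, starved 4 h, were treated with compound (10 μM-0.001 nM) plus 20 nM PGE2 (EC50-80) in HBSS buffer with 0.5 mM IBMX for 18.5 min at room temperature. cAMP was read by TR-FRET (665/615 nm) as % of DMSO control; IC50 from 4-parameter fit, median of multiple experiments.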

T2 sequence (P35408 whole entry): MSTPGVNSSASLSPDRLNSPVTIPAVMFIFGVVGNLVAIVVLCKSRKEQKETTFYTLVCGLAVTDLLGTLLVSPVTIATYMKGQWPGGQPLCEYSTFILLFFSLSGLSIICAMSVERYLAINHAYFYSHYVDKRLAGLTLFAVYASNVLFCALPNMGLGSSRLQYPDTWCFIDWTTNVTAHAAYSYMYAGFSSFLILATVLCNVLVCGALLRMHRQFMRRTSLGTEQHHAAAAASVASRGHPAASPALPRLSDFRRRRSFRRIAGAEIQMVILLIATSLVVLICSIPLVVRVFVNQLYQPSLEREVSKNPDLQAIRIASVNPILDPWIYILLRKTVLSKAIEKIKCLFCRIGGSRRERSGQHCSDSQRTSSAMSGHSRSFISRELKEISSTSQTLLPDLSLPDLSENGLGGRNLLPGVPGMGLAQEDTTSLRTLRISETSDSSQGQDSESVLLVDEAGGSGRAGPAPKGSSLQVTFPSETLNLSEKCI
T1 sequence (P43116 whole entry): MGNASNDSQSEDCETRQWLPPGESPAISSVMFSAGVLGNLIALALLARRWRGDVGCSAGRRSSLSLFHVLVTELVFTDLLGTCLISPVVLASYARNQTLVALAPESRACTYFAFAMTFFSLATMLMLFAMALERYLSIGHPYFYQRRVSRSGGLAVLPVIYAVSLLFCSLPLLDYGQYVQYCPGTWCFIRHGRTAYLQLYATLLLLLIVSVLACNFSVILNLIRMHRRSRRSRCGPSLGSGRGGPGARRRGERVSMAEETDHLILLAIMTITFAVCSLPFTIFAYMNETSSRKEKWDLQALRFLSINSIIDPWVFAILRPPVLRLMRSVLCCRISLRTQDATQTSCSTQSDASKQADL

Turning to `Cc1sc2ccn(Cc3ccc(-c4ccccc4)cc3)c2c1C(=O)NC1CC2(C1)CC(C(=O)O)C2` (stereo not shown) [Example 80, 6-(4-([1,1′-biphenyl]-4-ylmethyl)-2-methyl-4H-thieno[3,2-b]pyrrole-3-carboxamido)spiro[3.3]heptane-2-carboxylic acid], the IC50 at hEP2 was 500 to 5000 nM; at hEP4, < 500 nM.
With `Cc1cn(Cc2ccc(-c3ccccc3)cc2)c2c(C(=O)NC3CC4(C3)CC(C(=O)O)C4)csc12` (stereo not shown) [Example 81, 6-(4-([1,1′-biphenyl]-4-ylmethyl)-6-methyl-4H-thieno[3,2-b]pyrrole-3-carboxamido)spiro[3.3]heptane-2-carboxylic acid], the half-maximal inhibitory concentration (IC50) was 500 to 5000 nM on hEP2 and > 10000 nM on hEP4.
For `O=C(NC1CC2(C1)CC(C(=O)O)C2)c1c(Cl)sc2ccn(Cc3ccc(-c4ccccc4)cc3)c12` (stereo not shown) [Example 82, 6-(4-([1,1′-biphenyl]-4-ylmethyl)-2-chloro-4H-thieno[3,2-b]pyrrole-3-carboxamido)spiro[3.3]heptane-2-carboxylic acid], in that order: 500 to 5000 nM and < 500 nM.
For the molecule `O=C(N[C@H]1C[C@H](C(=O)O)C1)c1csc2ccn(Cc3ccc(-c4ccccc4)cc3)c12` [Example 83, (1R,3R)-3-(4-([1,1′-biphenyl]-4-ylmethyl)-4H-thieno[3,2-b]pyrrole-3-carboxamido)cyclobutane-1-carboxylic acid], the IC50 is 500 to 5000 nM on hEP2 and > 10000 nM on hEP4.
On the same counts, the results for `O=C(N[C@H]1C[C@@H](C(=O)O)C1)c1csc2ccn(Cc3ccc(-c4ccccc4)cc3)c12` [Example 84, (1S,3S)-3-(4-([1,1′-biphenyl]-4-ylmethyl)-4H-thieno[3,2-b]pyrrole-3-carboxamido)cyclobutane-1-carboxylic acid] are > 10000 nM and > 10000 nM.
On the same counts, the results for `COc1cccc(-c2ccc(Cn3ccc4scc(C(=O)NC5CC6(C5)CC(C(=O)O)C6)c43)cc2)c1` (stereo not shown) [Example 85, 6-(4-((3′-methoxy-[1,1′-biphenyl]-4-yl)methyl)-4H-thieno[3,2-b]pyrrole-3-carboxamido)spiro[3.3]heptane-2-carboxylic acid] are < 500 nM and < 500 nM.
On the same counts, the results for `O=C(NC12CCC(C(=O)O)(CC1)CC2)c1csc2ccn(Cc3ccc(-c4ccccc4)cc3)c12` [Example 88, 4-(4-([1,1′-biphenyl]-4-ylmethyl)-4H-thieno[3,2-b]pyrrole-3-carboxamido)bicyclo[2.2.2]octane-1-carboxylic acid] are 500 to 5000 nM and 5000 to 10000 nM.
`COc1cc(OC)cc(-c2ccc(Cn3ccc4scc(C(=O)NC5CC6(C5)CC(C(=O)O)C6)c43)cc2)c1` (stereo not shown) [Example 89, 6-(4-((3′,5′-dimethoxy-[1,1′-biphenyl]-4-yl)methyl)-4H-thieno[3,2-b]pyrrole-3-carboxamido)spiro[3.3]heptane-2-carboxylic acid]: the IC50 at hEP2 and on hEP4 was < 500 nM throughout.
`O=C(NC1CC2(C1)CC(C(=O)O)C2)c1csc2ccn(Cc3ccc(C(F)(F)F)cc3)c12` (stereo not shown) [Example 90, 6-(4-(4-(trifluoromethyl)benzyl)-4H-thieno[3,2-b]pyrrole-3-carboxamido)spiro[3.3]heptane-2-carboxylic acid]: the concentration for half-maximal inhibition (IC50) on hEP2 and at hEP4 was 500 to 5000 nM throughout.
For the molecule `O=C(NC1CC2(C1)CC(C(=O)O)C2)c1csc2ccn(CCc3ccc(-c4ccccc4)cc3)c12` (stereo not shown) [Example 91, 6-(4-(2-([1,1′-biphenyl]-4-yl)ethyl)-4H-thieno[3,2-b]pyrrole-3-carboxamido)spiro[3.3]heptane-2-carboxylic acid], the IC50 on hEP2 and on hEP4 was > 10000 nM each time.
As for `O=C(NC1CC2(C1)CC(C(=O)O)C2)c1csc2ccn(Cc3ccc(-c4cccc(F)c4)cc3)c12` (stereo not shown) [Example 92, 6-(4-((3′-fluoro-[1,1′-biphenyl]-4-yl)methyl)-4H-thieno[3,2-b]pyrrole-3-carboxamido)spiro[3.3]heptane-2-carboxylic acid], the IC50 at hEP2 and at hEP4 was < 500 nM throughout.
As for `O=C(NC1CC2(C1)CC(C(=O)O)C2)c1csc2ccn(Cc3ccc(-c4ncccn4)cc3)c12` (stereo not shown) [Example 93, 6-(4-(4-(pyrimidin-2-yl)benzyl)-4H-thieno[3,2-b]pyrrole-3-carboxamido)spiro[3.3]heptane-2-carboxylic acid], the half-inhibitory concentration (IC50) on hEP2 was in the range of 5000 to 10000 nM; at hEP4, 500 to 5000 nM.
On the same counts, the results for `O=C(NC1CC2(C1)CC(C(=O)O)C2)c1csc2ccn(Cc3cnc(-c4ccccc4)nc3)c12` (stereo not shown) [Example 94, 6-(4-((2-phenylpyrimidin-5-yl)methyl)-4H-thieno[3,2-b]pyrrole-3-carboxamido)spiro[3.3]heptane-2-carboxylic acid] are 500 to 5000 nM and < 500 nM.
On the same counts, the results for `COc1cc(F)cc(-c2ccc(Cn3ccc4sc(C)c(C(=O)NC5CC6(C5)CC(C(=O)O)C6)c43)cc2)c1` (stereo not shown) [Example 95] are 500 to 5000 nM and < 500 nM.
Regarding `Cc1sc2ccn(CC#Cc3ccccc3)c2c1C(=O)NC1CC2(C1)CC(C(=O)O)C2` (stereo not shown) [Example 96, 6-(2-methyl-4-(3-phenylprop-2-yn-1-yl)-4H-thieno[3,2-b]pyrrole-3-carboxamido)spiro[3.3]heptane-2-carboxylic acid], the IC50 at hEP2 was > 10000 nM; on hEP4, 500 to 5000 nM.
Consider `COc1cc(F)cc(-c2ccc(Cn3ccc4scc(C(=O)NC5CC6(C5)CC(C(=O)O)C6)c43)cc2)c1` (stereo not shown) [Example 97, 6-4-((3′-fluoro-5′-methoxy[1,1′-biphenyl-4-yl)methyl)-4H-thieno[3,2-b]pyrrole-3-carboxamido)spiro[3.3]heptane-2-carboxylic acid], for which the IC50 at hEP2 and at hEP4 was < 500 nM each time.
Turning to `O=C(NC1CC2(C1)CC(C(=O)O)C2)c1csc2ccn(CC#Cc3ccccc3)c12` (stereo not shown) [Example 98, 6-(2-4-(3-phenylprop-2-yn-1-yl)-4H-thieno[3,2-b]pyrrole-3-carboxamido)spiro[3.3]heptane-2-carboxylic acid], the values for the IC50 at hEP2 and at hEP4 were > 10000 nM and 500 to 5000 nM, respectively.
On the same counts, the results for `O=C(NC1CC2(C1)CC(C(=O)O)C2)c1csc2ccn(Cc3ccc(-c4cccnc4)cc3)c12` (stereo not shown) [Example 99, 6-(4-(4-(pyridin-3-yl)benzyl)-4H-thieno[3,2-b]pyrrole-3-carboxamido)spiro[3.3]heptane-2-carboxylic acid] are > 10000 nM and < 500 nM.
On the same counts, the results for `O=C(NC1CC2(C1)CC(C(=O)O)C2)c1csc2ccn(Cc3ccc(-c4cncc(F)c4)cc3)c12` (stereo not shown) [Example 100, 6-(4-(4-(5-fluoropyridin-3-yl)benzyl)-4H-thieno[3,2-b]pyrrole-3-carboxamido)spiro[3.3]heptane-2-carboxylic acid] are 500 to 5000 nM and < 500 nM.
On the same counts, the results for `COc1cncc(-c2ccc(Cn3ccc4scc(C(=O)NC5CC6(C5)CC(C(=O)O)C6)c43)cc2)c1` (stereo not shown) [Example 101, 6-(4-(4-(5-methoxypyridin-3-yl)benzyl)-4H-thieno[3,2-b]pyrrole-3-carboxamido)spiro[3.3]heptane-2-carboxylic acid] are 500 to 5000 nM and < 500 nM.
As for `Cn1cc(-c2ccc(Cn3ccc4scc(C(=O)NC5CC6(C5)CC(C(=O)O)C6)c43)cc2)cn1` (stereo not shown) [Example 102, 6-(4-(4-(1-methyl-1H-pyrazol-4-yl)benzyl)-4H-thieno[3,2-b]pyrrole-3-carboxamido)spiro[3.3]heptane-2-carboxylic acid], the IC50 on hEP2 is > 10000 nM; at hEP4, < 500 nM.
On the same counts, the results for `O=C(NC1CC2(C1)CC(C(=O)O)C2)c1csc2ccn(Cc3ccc4c(ccn4Cc4ccccc4)c3)c12` (stereo not shown) [Example 103, 6-(4-((1-benzyl-IH-indol-5-yl)methyl)-4H-thieno[3,2-b]pyrrole-3-carboxamido)spiro[3.3]heptane-2-carboxylic acid] are > 10000 nM and < 500 nM.
As for `O=C(NC1CC2(C1)CC(C(=O)O)C2)c1csc2ccn(Cc3ccc(-c4ccccn4)cc3)c12` (stereo not shown) [Example 104, 6-(4-(4-(pyridin-2-yl)benzyl)-4H-thieno[3,2-b]pyrrole-3-carboxamido)spiro[3.3]heptane-2-carboxylic acid], the IC50 on hEP2 is 5000 to 10000 nM; on hEP4 it was < 500 nM.
On the same counts, the results for `O=C(NC1CC2(C1)CC(C(=O)O)C2)c1csc2ccn(Cc3ccc(-c4ccccc4)nc3)c12` (stereo not shown) [Example 105, 6-(4-((6-phenylpyridin-3-yl)methyl)-4H-thieno[3,2-b]pyrrole-3-carboxamido)spiro[3.3]heptane-2-carboxylic acid] are 500 to 5000 nM and < 500 nM.
For `O=C(NC1CC2(C1)CC(C(=O)O)C2)c1csc2ccn(Cc3ccc(-c4ccncc4)cc3)c12` (stereo not shown) [Example 106, 6-(4-(4-(pyridin-4-yl)benzyl)-4H-thieno[3,2-b]pyrrole-3-carboxamido)spiro[3.3]heptane-2-carboxylic acid], in that order: 5000 to 10000 nM and < 500 nM.
On the same counts, the results for `O=C(NC1CC2(C1)CC(C(=O)O)C2)c1csc2ccn(Cc3ccc(-n4cccn4)cc3)c12` (stereo not shown) [Example 107, 6-(4-(4-(1H-pyrazol-1-yl)benzyl)-4H-thieno[3,2-b]pyrrole-3-carboxamido)spiro[3.3]heptane-2-carboxylic acid] are > 10000 nM and 500 to 5000 nM.

The values above are taken from patent US20230365582A1, “NOVEL COMPOUNDS HAVING INHIBITORY ACTIVITY ON PROSTAGLANDIN E2 RECEPTOR AND USES THEREOF” (KANAPH THERAPEUTICS INC., priority 2020, published 2023).
